Legend:
Assay in all cases: relative viability (nuclei count vs DMSO), 5 days (fraction); higher = more cells survive
[1] = compound: Cn1cnc2c(F)c(Nc3ccc(Br)cc3Cl)c(C(=O)NOCCO)cc21 [Selumetinib] + Nc1ncn([C@H]2C[C@H](O)[C@@H](CO)O2)c(=O)n1 [Decitabine] (partner 2 µM)
Summary of the method: (§1)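 Cells from lung cancer lines were seeded into 1536-well plates and, one day later, dosed by pin tool. Treatments were either a single drug or a fixed dose of an anchor drug with five library-drug doses (not always all listed) in √10 steps. After 5 days, nuclei were stained in a one-step fixation (final 0.05% Triton X-100, 1% formaldehyde, 1 ug/ml Hoechst) and counted on 4× images, and relative viability is the treated-to-vehicle nuclei ratio, as the median of duplicate plates.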

[2] = compound: CC1(C)CCC(CN2CCN(c3ccc(C(=O)NS(=O)(=O)c4ccc(NCC5CCOCC5)c([N+](=O)[O-])c4)c(Oc4cnc5[nH]ccc5c4)c3)CC2)=C(c2ccc(Cl)cc2)C1 [Venetoclax] + C[C@@H](Oc1cc(-c2cnn(C3CCNCC3)c2)cnc1N)c1c(Cl)ccc(F)c1Cl [Crizotinib] (partner 1 µM)
Summary of the method: as §1

[3] = compound: Cn1cnc2c(F)c(Nc3ccc(Br)cc3Cl)c(C(=O)NOCCO)cc21 [Selumetinib] + CC(=O)c1c(C)c2cnc(Nc3ccc(N4CCNCC4)cn3)nc2n(C2CCCC2)c1=O [Palbociclib] (partner 0.5 µM)
Summary of the method: as §1

[4] = compound: CC1(C)CCC(CN2CCN(c3ccc(C(=O)NS(=O)(=O)c4ccc(NCC5CCOCC5)c([N+](=O)[O-])c4)c(Oc4cnc5[nH]ccc5c4)c3)CC2)=C(c2ccc(Cl)cc2)C1 [Venetoclax] + C[C@]1(O)C[C@@H](c2nc(-c3ccc4ccc(-c5ccccc5)nc4c3)c3c(N)nccn32)C1 [Linsitinib] (partner 1 µM)
Summary of the method: as §1

| Cell Line | relative viability ([1]; first compound 0.02 µM) | relative viability ([1]; first compound 0.06325 µM) | relative viability ([1]; first compound 0.2 µM) | relative viability ([1]; first compound 0.6325 µM) | relative viability ([2]; first compound 0.01 µM) | relative viability ([2]; first compound 0.03162 µM) | relative viability ([2]; first compound 0.1 µM) | relative viability ([2]; first compound 0.3162 µM) | relative viability ([2]; first compound 1 µM) | relative viability ([3]; first compound 0.02 µM) | relative viability ([3]; first compound 0.06325 µM) | relative viability ([3]; first compound 0.2 µM) | relative viability ([3]; first compound 0.6325 µM) | relative viability ([4]; first compound 0.01 µM) | relative viability ([4]; first compound 0.03162 µM) | relative viability ([4]; first compound 0.1 µM) | relative viability ([4]; first compound 0.3162 µM) | relative viability ([4]; first compound 1 µM) |
| --- | --- | --- | --- | --- | --- | --- | --- | --- | --- | --- | --- | --- | --- | --- | --- | --- | --- | --- |
| SK-MES-1 | 0.416 | 0.307 | 0.356 | 0.323 | 1.01 | 1.08 | 1.05 | 1.01 | 0.843 | 0.304 | 0.322 | 0.315 | 0.264 | 0.995 | 1.09 | 1.07 | 1.06 | 0.963 |
| SW 1573 | 0.505 | 0.369 | 0.384 | 0.373 | 0.81 | 0.808 | 0.752 | 0.823 | 0.732 | 0.337 | 0.294 | 0.365 | 0.312 | 0.93 | 0.766 | 0.916 | 0.835 | 0.891 |
